Row | Compound | melting point
1 | Cc1cc2c(cc1C(=O)N1Cc3ccccc3C1)[nH]c(=O)c1nnc(C3CCCC3)n12 | 318 °C (dec.)
2 | Cc1cc2c(cc1C(=O)N1CCc3cc(F)ccc31)[nH]c(=O)c1cnc(C3CCOC3)n12.Cl (stereo not drawn) | 186 to 188 °C
3 | COc1cc2c(cc1C(=O)N1Cc3ccccc3C1)[nH]c(=O)c1cnc(C3CCOCC3)n12.Cl | 199 to 201 °C (dec.)
4 | Cc1cc2c(cc1C(=O)N1Cc3c(F)ccc(F)c3C1)[nH]c(=O)c1cnc(C3CCOCC3)n12.Cl | 199 to 201 °C (dec.)
5 | CC(C)c1ncc2c(=O)[nH]c3cc(C(=O)N4CCc5c(Cl)cccc5C4)ccc3n12.Cl | 328 to 329 °C
6 | Cc1cc2c(cc1C(=O)N1Cc3ccc(F)cc3C1)[nH]c(=O)c1cnc(C3CCCC3)n12 | 228 to 231 °C
7 | Cc1cc2c(cc1C(=O)N1CCc3cc(Cl)ccc31)[nH]c(=O)c1nnc(-c3ccccc3)n12 | 248 to 249 °C
8 | Cc1cc2c(cc1C(=O)N1CCc3c(Cl)cccc3C1)[nH]c(=O)c1cnc(C3CCCC3)n12 | 297 to 299 °C
9 | CN1CCN(C(=O)c2ccc3c(c2)[nH]c(=O)c2nnc(-c4ccc(O)cc4)n23)CC1c1ccccc1 (stereo not drawn) | 286 °C (dec.)
10 | Cc1c(C(=O)N2CCc3cc(Cl)ccc32)ccc2c1[nH]c(=O)c1cnc(C3CCOCC3)n12 | 290 °C (dec.)
11 | Cc1cc2c(cc1C(=O)N1Cc3ccccc3C1)[nH]c(=O)c1cnc(C3CCOC3)n12.Cl (stereo not drawn) | 270 °C (dec.)
12 | Cc1cc2c(cc1C(=O)N1Cc3c(F)ccc(F)c3C1)[nH]c(=O)c1cnc(C3CCCOC3)n12 (stereo not drawn) | 223 to 225 °C
13 | Cc1cc2c(cc1C(=O)N1CCc3cc(F)ccc31)[nH]c(=O)c1c(C)nc(C3CCOCC3)n12 | 177 to 180 °C
14 | Cc1cc2c(cc1C(=O)N1Cc3ccc(F)cc3C1)[nH]c(=O)c1cnc(C3CCOCC3)n12.Cl | 200 to 203 °C
15 | O=C(c1ccc2c(c1)[nH]c(=O)c1nnc(C3CCOCC3)n12)N1CCOC(c2ccccc2)C1 (stereo not drawn) | 275 to 276 °C
16 | Cc1cc2c(cc1C(=O)N1Cc3ccccc3C1)[nH]c(=O)c1nnc(C3(C)CCOCC3)n12 | 232 °C (dec.)
17 | Cc1cnc2c(c1)CCN2C(=O)c1cc2[nH]c(=O)c3cnc(C4CCOCC4)n3c2cc1C | 313 to 315 °C
18 | Cc1cc2c(cc1C(=O)N1Cc3ccccc3C1)[nH]c(=O)c1nnc(CC3CC[S+]([O-])CC3)n12 (stereo not drawn) | 248 °C (dec.)
19 | Cc1ccc2c(c1)CCN2C(=O)c1cc2[nH]c(=O)c3c(C)nc(C4CCOCC4)n3c2cc1C.Cl | 264 to 266 °C (dec.)
20 | Cc1cc2c(cc1C(=O)N1Cc3ccccc3C1)[nH]c(=O)c1nnc([C@H]3CC[C@H](C)CC3)n12 | 318 to 321 °C
21 | Cc1cc2c(cc1C(=O)N1CCc3cccnc31)[nH]c(=O)c1nnc(C3CCOC3)n12.Cl (stereo not drawn) | 210 to 211 °C (dec.)
22 | Cc1cc2c(cc1C(=O)N1CCc3ccc([N+](=O)[O-])cc31)[nH]c(=O)c1cnc(C3CCOCC3)n12.Cl | 301 to 304 °C
23 | Cc1cc2c(cc1C(=O)N1CCc3ccc(Cl)cc31)[nH]c(=O)c1cnc(C3CCOCC3)n12.Cl | 188 to 189 °C
24 | Cc1cc2c(cc1C(=O)N1Cc3cccc(F)c3C1)[nH]c(=O)c1cnc(C3CCOCC3)n12.Cl | 201 to 203 °C
25 | Cc1c(C(=O)N2CCc3cccnc32)ccc2c1[nH]c(=O)c1cnc(C3CCOCC3)n12.Cl | 320 °C (dec.)
26 | Cc1cc2c(cc1C(=O)N1Cc3cccc(C)c3C1)[nH]c(=O)c1nnc(C3CCOCC3)n12 | 262 to 263 °C
27 | Cc1cc2c(cc1C(=O)N1CCc3cc(F)c(Cl)cc31)[nH]c(=O)c1cnc(C3CCOCC3)n12.Cl | 315 °C (dec.)
28 | Cc1cc2c(cc1C(=O)N1CCc3cc(Cl)ccc31)[nH]c(=O)c1nnc(C3CCC(F)(F)CC3)n12 | 230 to 233 °C
29 | Cc1cc2c(cc1C(=O)N1CCc3cccnc31)[nH]c(=O)c1nnc(C3CCCOC3)n12 (stereo not drawn) | 314 °C (dec.)
30 | Cc1cc2c(cc1C(=O)N1CCc3cnn(C)c3C1)[nH]c(=O)c1cnc(C3CCOCC3)n12 | 192 to 194 °C (dec.)
